{
  "source": "patent US11332440B2",
  "about": "“4-oxo-alkylated tetramic acid compound, and preparation method thereof” (priority 2017, dated 2022)",
  "test": "Pharmacokinetic evaluation, plasma and brain concentrations",
  "format": "in vivo, ICR mice",
  "excerpt": "Distribution of a medicament in the body is one of the important indicators to determine the dose and efficacy of the medicament. Thus, excellent candidate compounds should have good pharmacokinetic characteristics. In addition, since the compound of the present invention is intended to be used for the treatment of Alzheimer's disease, which is a disease of the central nervous system, the distribution pattern of the compound in the brain and the blood is also one of the subjects to be investigated. In this experiment, compound 50561 was administered to mice […] or by gavage, and the concentrations of the compound in blood and brain were measured at specific time points to determine the pharmacokinetic parameters.\nForty-eight male ICR mice purchased from Shanghai Sippr-BK Lab. Animal Co. Ltd were used in this experiment. The oral group was fasted for 10-14 hours before administration, and feeding was restored 4 hours after administration. Samples were collected from the intravenous administration group 0.083 h, 0.25 h, 0.5 h, 1 h, 2 h, 4 h, 8 h, and 24 h after administration, respectively; while for the oral administration group, about 0.5 mL of blood was collected from the heart 0.25 h, 0.5 h, 1 h, 2 h, 4 h, 6 h, 8 h, and 24 h after administration, respectively. Heparin sodium was used for anticoagulation. Blood samples were collected and placed on ice, and plasma was separated by centrifugation (centrifugation conditions: 8000 rpm, 6 minutes, 4C). The collected plasma was stored at −80° C. before analysis. After collecting plasma samples, brain tissues were collected, washed with normal saline, water-absorbed by filter paper, weighed immediately, and then placed in labeled tubes (one tube for one brain tissue). The samples to be tested were temporarily placed on ice before being stored in a −80° C. refrigerator.\nThe analysis methods of biological samples and the analysis of all samples were done by Medicilon Pharmaceutical Technology (Shanghai) Co., Ltd. The intraday accuracy evaluation of the quality control samples was carried out while analyzing the samples, and the accuracy of over 66.7% of the quality control samples was required to be between 80-120%.\nWhen calculating the pharmacokinetic parameters, the BLQ before Cmax (including “No peak”) was calculated as 0; BLQ occurring after Cmax (including “No peak”) was not involved in the calculation. WinNonlin Professional V 5.2 (Pharsight, USA) was adopted to calculate the following pharmacokinetic parameters: AUC(0-t), AUC(0-∞), T1/2, MRT(0-∞), Cmax, and Tmax. The tissue/plasma ratio was to be calculated by the following formula based on the blood concentration data at different time points: Tissue/plasma ratio (mL/g)=tissue blood concentration/plasma blood concentration.",
  "data": [
    {"smiles": "O=C1C=C(OCc2ccc(F)cc2)[C@H](Cc2ccccc2)N1", "note": "[Compound 50561]", "values": [
      {"measurement": "Brain/plasma ratio", "setting": "IV 1 mg/kg, 0.083 hr, G1-1", "value": 2.604, "unit": "mL/G"},
      {"measurement": "Brain/plasma ratio", "setting": "IV 1 mg/kg, 0.083 hr, G1-2", "value": 2.645, "unit": "mL/G"},
      {"measurement": "Brain/plasma ratio", "setting": "IV 1 mg/kg, 0.083 hr, G1-3", "value": 2.249, "unit": "mL/G"},
      {"measurement": "Brain/plasma ratio", "setting": "IV 1 mg/kg, 0.083 hr, Mean", "value": 2.499, "unit": "mL/G"},
      {"measurement": "Brain/plasma ratio", "setting": "IV 1 mg/kg, 0.25 hr, G1-1", "value": 2.451, "unit": "mL/G"},
      {"measurement": "Brain/plasma ratio", "setting": "IV 1 mg/kg, 0.25 hr, G1-2", "value": 2.415, "unit": "mL/G"},
      {"measurement": "Brain/plasma ratio", "setting": "IV 1 mg/kg, 0.25 hr, G1-3", "value": 2.159, "unit": "mL/G"},
      {"measurement": "Brain/plasma ratio", "setting": "IV 1 mg/kg, 0.25 hr, Mean", "value": 2.342, "unit": "mL/G"},
      {"measurement": "Brain/plasma ratio", "setting": "IV 1 mg/kg, 0.5 hr, G1-1", "value": 2.540, "unit": "mL/G"},
      {"measurement": "Brain/plasma ratio", "setting": "IV 1 mg/kg, 0.5 hr, G1-2", "value": 2.564, "unit": "mL/G"},
      {"measurement": "Brain/plasma ratio", "setting": "IV 1 mg/kg, 0.5 hr, G1-3", "value": 2.361, "unit": "mL/G"},
      {"measurement": "Brain/plasma ratio", "setting": "IV 1 mg/kg, 0.5 hr, Mean", "value": 2.488, "unit": "mL/G"},
      {"measurement": "Brain/plasma ratio", "setting": "IV 1 mg/kg, 1 hr, G1-1", "value": 2.330, "unit": "mL/G"},
      {"measurement": "Brain/plasma ratio", "setting": "IV 1 mg/kg, 1 hr, G1-2", "value": 3.941, "unit": "mL/G"},
      {"measurement": "Brain/plasma ratio", "setting": "IV 1 mg/kg, 1 hr, G1-3", "value": 2.751, "unit": "mL/G"},
      {"measurement": "Brain/plasma ratio", "setting": "IV 1 mg/kg, 1 hr, Mean", "value": 3.007, "unit": "mL/G"},
      {"measurement": "Blood concentration", "setting": "IV 1 mg/kg, 2 hr, G1-1", "value": "BLQ"},
      {"measurement": "Brain tissue concentration", "setting": "IV 1 mg/kg, 2 hr, G1-1", "value": "BLQ"},
      {"measurement": "Blood concentration", "setting": "IV 1 mg/kg, 2 hr, G1-2", "value": "BLQ"},
      {"measurement": "Brain tissue concentration", "setting": "IV 1 mg/kg, 2 hr, G1-2", "value": "BLQ"},
      {"measurement": "Blood concentration", "setting": "IV 1 mg/kg, 2 hr, G1-3", "value": "BLQ"},
      {"measurement": "Brain tissue concentration", "setting": "IV 1 mg/kg, 2 hr, G1-3", "value": "BLQ"},
      {"measurement": "Blood concentration", "setting": "IV 1 mg/kg, 4 hr, G1-1", "value": "BLQ"},
      {"measurement": "Brain tissue concentration", "setting": "IV 1 mg/kg, 4 hr, G1-1", "value": "BLQ"},
      {"measurement": "Blood concentration", "setting": "IV 1 mg/kg, 4 hr, G1-2", "value": "BLQ"},
      {"measurement": "Brain tissue concentration", "setting": "IV 1 mg/kg, 4 hr, G1-2", "value": "BLQ"},
      {"measurement": "Blood concentration", "setting": "IV 1 mg/kg, 4 hr, G1-3", "value": "BLQ"},
      {"measurement": "Brain tissue concentration", "setting": "IV 1 mg/kg, 4 hr, G1-3", "value": "BLQ"},
      {"measurement": "Blood concentration", "setting": "IV 1 mg/kg, 8 hr, G1-1", "value": "BLQ"},
      {"measurement": "Brain tissue concentration", "setting": "IV 1 mg/kg, 8 hr, G1-1", "value": "BLQ"},
      {"measurement": "Blood concentration", "setting": "IV 1 mg/kg, 8 hr, G1-2", "value": "BLQ"},
      {"measurement": "Brain tissue concentration", "setting": "IV 1 mg/kg, 8 hr, G1-2", "value": "BLQ"},
      {"measurement": "Blood concentration", "setting": "IV 1 mg/kg, 8 hr, G1-3", "value": "BLQ"},
      {"measurement": "Brain tissue concentration", "setting": "IV 1 mg/kg, 8 hr, G1-3", "value": "BLQ"},
      {"measurement": "Blood concentration", "setting": "IV 1 mg/kg, 24 hr, G1-1", "value": "BLQ"},
      {"measurement": "Brain tissue concentration", "setting": "IV 1 mg/kg, 24 hr, G1-1", "value": "BLQ"},
      {"measurement": "Blood concentration", "setting": "IV 1 mg/kg, 24 hr, G1-2", "value": "BLQ"},
      {"measurement": "Brain tissue concentration", "setting": "IV 1 mg/kg, 24 hr, G1-2", "value": "BLQ"},
      {"measurement": "Blood concentration", "setting": "IV 1 mg/kg, 24 hr, G1-3", "value": "BLQ"},
      {"measurement": "Brain tissue concentration", "setting": "IV 1 mg/kg, 24 hr, G1-3", "value": "BLQ"},
      {"measurement": "Brain/plasma ratio", "setting": "PO 10 mg/kg, 0.25 hr, G2-1", "value": 1.948, "unit": "mL/G"},
      {"measurement": "Brain/plasma ratio", "setting": "PO 10 mg/kg, 0.25 hr, G2-2", "value": 1.590, "unit": "mL/G"},
      {"measurement": "Brain/plasma ratio", "setting": "PO 10 mg/kg, 0.25 hr, G2-3", "value": 2.093, "unit": "mL/G"},
      {"measurement": "Brain/plasma ratio", "setting": "PO 10 mg/kg, 0.25 hr, Mean", "value": 1.877, "unit": "mL/G"},
      {"measurement": "Brain/plasma ratio", "setting": "PO 10 mg/kg, 0.5 hr, G2-1", "value": 2.435, "unit": "mL/G"},
      {"measurement": "Brain/plasma ratio", "setting": "PO 10 mg/kg, 0.5 hr, G2-2", "value": 2.027, "unit": "mL/G"},
      {"measurement": "Brain/plasma ratio", "setting": "PO 10 mg/kg, 0.5 hr, G2-3", "value": 1.980, "unit": "mL/G"},
      {"measurement": "Brain/plasma ratio", "setting": "PO 10 mg/kg, 0.5 hr, Mean", "value": 2.147, "unit": "mL/G"},
      {"measurement": "Brain/plasma ratio", "setting": "PO 10 mg/kg, 1 hr, G2-1", "value": 2.485, "unit": "mL/G"},
      {"measurement": "Brain/plasma ratio", "setting": "PO 10 mg/kg, 1 hr, G2-2", "value": 2.152, "unit": "mL/G"},
      {"measurement": "Brain/plasma ratio", "setting": "PO 10 mg/kg, 1 hr, G2-3", "value": 2.158, "unit": "mL/G"},
      {"measurement": "Brain/plasma ratio", "setting": "PO 10 mg/kg, 1 hr, Mean", "value": 2.265, "unit": "mL/G"},
      {"measurement": "Brain/plasma ratio", "setting": "PO 10 mg/kg, 2 hr, G2-1", "value": 2.163, "unit": "mL/G"},
      {"measurement": "Brain/plasma ratio", "setting": "PO 10 mg/kg, 2 hr, G2-2", "value": 2.454, "unit": "mL/G"},
      {"measurement": "Brain/plasma ratio", "setting": "PO 10 mg/kg, 2 hr, G2-3", "value": 2.372, "unit": "mL/G"},
      {"measurement": "Brain/plasma ratio", "setting": "PO 10 mg/kg, 2 hr, Mean", "value": 2.329, "unit": "mL/G"},
      {"measurement": "Brain/plasma ratio", "setting": "PO 10 mg/kg, 4 hr, G2-1", "value": 2.373, "unit": "mL/G"},
      {"measurement": "Brain/plasma ratio", "setting": "PO 10 mg/kg, 4 hr, G2-2", "value": 2.428, "unit": "mL/G"},
      {"measurement": "Brain/plasma ratio", "setting": "PO 10 mg/kg, 4 hr, G2-3", "value": 1.355, "unit": "mL/G"},
      {"measurement": "Brain/plasma ratio", "setting": "PO 10 mg/kg, 4 hr, Mean", "value": 2.052, "unit": "mL/G"},
      {"measurement": "Brain/plasma ratio", "setting": "PO 10 mg/kg, 6 hr, G2-1", "value": 1.839, "unit": "mL/G"},
      {"measurement": "Brain/plasma ratio", "setting": "PO 10 mg/kg, 6 hr, G2-2", "value": 2.764, "unit": "mL/G"},
      {"measurement": "Brain/plasma ratio", "setting": "PO 10 mg/kg, 6 hr, G2-3", "value": 2.929, "unit": "mL/G"},
      {"measurement": "Brain/plasma ratio", "setting": "PO 10 mg/kg, 6 hr, Mean", "value": 2.511, "unit": "mL/G"},
      {"measurement": "Brain/plasma ratio", "setting": "PO 10 mg/kg, 8 hr, G2-1", "value": 1.575, "unit": "mL/G"},
      {"measurement": "Brain/plasma ratio", "setting": "PO 10 mg/kg, 8 hr, G2-2", "value": 2.443, "unit": "mL/G"},
      {"measurement": "Brain tissue concentration", "setting": "PO 10 mg/kg, 8 hr, G2-3", "value": "BLQ"},
      {"measurement": "Brain/plasma ratio", "setting": "PO 10 mg/kg, 8 hr, Mean", "value": 2.009, "unit": "mL/G"},
      {"measurement": "Blood concentration", "setting": "PO 10 mg/kg, 24 hr, G2-1", "value": "BLQ"},
      {"measurement": "Brain tissue concentration", "setting": "PO 10 mg/kg, 24 hr, G2-1", "value": "BLQ"},
      {"measurement": "Blood concentration", "setting": "PO 10 mg/kg, 24 hr, G2-2", "value": "BLQ"},
      {"measurement": "Brain tissue concentration", "setting": "PO 10 mg/kg, 24 hr, G2-2", "value": "BLQ"},
      {"measurement": "Blood concentration", "setting": "PO 10 mg/kg, 24 hr, G2-3", "value": "BLQ"},
      {"measurement": "Brain tissue concentration", "setting": "PO 10 mg/kg, 24 hr, G2-3", "value": "BLQ"},
      {"measurement": "blood-brain barrier permeability (content in brain tissue versus blood)", "setting": "after intravenous injection and oral administration", "value": "good blood-brain barrier permeability"},
      {"measurement": "concentration at 0.083 h", "setting": "male, ICR, mouse, brain, IV 1 mg/kg, 0.083 hr, G1-3, read-out: Brain tissue concentration", "value": 977, "unit": "ng/g"}
    ]}
  ]
}
